“Also recorded” adds a separate entry of the source. Where two headings read alike, the source gives them in different places.
Experiments:
[1] = test system: T1, E. coli σ70-RNAP holoenzyme; test: Multiple round in vitro transcription by σ70-RNAP (rrnB P1 and rna1 promoters); assay type: biochemical, Escherichia coli; conditions: for Effect of DksA addition on RNAP inhibition, rrnB P1 promoter (in words): 2 μM DksA; for Inhibition of RNAP, rrnB P1 promoter (in words): absence of DksA, irrespective of presence or absence of 100 μM ppGpp
T1 construct: purchased Epicentre
Method: Next, we tested their effects on RNAP. […] We used multiple round in vitro transcription driven from the rrnB P1, a well-characterized ppGpp/DksA inhibited promoter, as described earlier[49]. The assays were performed in the presence and absence of 2 μM DksA and/or 100 μM ppGpp (Fig. 5a).
Effect of inhibitors on rrnB P1 (−66 to +50) promoter transcription by RNAP. Graphs depicting inhibitor (0, 0.025, 0.05, 0.15, 0.4 and 0.6 mM) titrations performed at 30 °C in T-buffer with 0.5 nM template (σ^70-rrnB P1 promoter (pRLG6214)) and 5 nM σ^70-RNAP, in presence or absence of 100 μM ppGpp and/or 2 μM DksA. Error bars represent standard deviations of linear regression estimates, each experiment was performed at least three times.
The assays were performed as per Bernardo et al. (2006)4 with minor modifications. Reactions were carried out in T-buffer (50 mM Tris-HCl pH 7.5, 100 mM NaCl, 10 mM MgCl2, 1 mM dithiothreitol, 0.1 mM EDTA and 0.275 mg of BSA per ml) at 30°C. Inhibitors were titrated to final concentrations of 0, 0.025, 0.05, 0.15, 0.4 and 0.6 mM. E. coli s 70-RNAP holoenzyme (Epicentre, final concentration 5 nM) and template plasmid DNA containing s70-rrnB P1 promoter, (pRLG6214, final concentration 0.5 nM) was used for all experiments. Before initiation of transcription, E. coli s70-RNAP holoenzyme and T buffer were incubated at 30°C for 5 min. Above mix was added to predispensed mixture of inhibitor and the template plasmid DNA containing s70-rrnB P1 promoter (pRLG6214), incubated for further 20 min to initiate open complex formation. 2.5 µl of a mixture of ATP (ﬁnal concentration 0.5 mM), GTP and CTP (ﬁnal concentration 0.2 mM each), UTP (ﬁnal concentration 0.08 mM) and [a-32P]-UTP (5 µCi at > 3000 Ci/mmol, PerkinElmer) was added to initiate transcription by RNAP. After 7 min, 1 µl heparin (0.125 mg/ml ﬁnal concentration) was added to the reaction mixture to prevent re-initiation and further incubated for 5 min to allow completion of initiated transcripts. Transcription was terminated by addition of formamide loading buffer and samples were electrophoresed on a 7M urea-5% polyacrylamide gel and quantified by phosphorimaging.

E. coli RelA = molecular target: T2, E. coli RelA (Escherichia coli, UniProt P0AG20); test: Inhibition of [3H]GDP to [3H]ppGpp conversion by E. coli RelA activated by vacant 70S ribosomes and 100 μM ppGpp; assay type: biochemical; conditions: for IC50: 30 nM RelA, 0.5 μM vacant 70S, 100 μM ppGpp; for nHill (Hill coefficient of the titration fit): Supplementary Table 1, 4-parameter logistic model
T2 construct: made in house
Method: For the initial characterization of compounds, we followed the inhibition of [^3H] GDP conversion to [^3H] ppGpp catalyzed by E. coli RelA in a simplified system in which RelA’s activity was induced by vacant 70S ribosomes and 100 μM of ppGpp[15]. Unlabeled ppGpp was added to reaction mixtures in order to linearize the kinetics of [^3H] ppGpp synthesis due to an activating effect on the RelA enzyme. We used a targeted library of 69 nucleotides belonging to several structural classes: ‘true’ ppGpp analogues; Relacin and its derivatives; pyrrolidine, azetidine, piperidine and acyclic phosphonates. Chemical structures of tested compounds and titrations in the RelA:70S:ppGpp system are presented in Supplementary Table 1.
Detailed description of experimental procedures can be found in Supplementary Text. Biochemical assays utilize in vitro translation[58] and stringent response[15] systems from E. coli purified components. Experiments were performed in HEPES:Polymix[58] buffer with either 5 (for enzymatically assembled initiation complexes) or 15 mM (for vacant 70 S, as well as non-enzymatically assembled programmed ribosomes) Mg^2+. Expression and purification of E. faecalis RelQ was performed as per Gaca (2015) and colleagues. GTPase and ppGpp synthesis were followed using TLC separation and radiochemical detection of ^3H-labelled nucleotides. Multiple round in vitro transcription assays were performed as per Bernardo et al.[49] with minor modifications. Inhibition efficiency (IC50) was calculated using 4-parameter logistic model (Hill equation) as per Sebaugh[60].
(§1) Thin layer chromatography (TLC) analysis of nucleotide mixtures
(§2) Both EF-G GTPase reaction and ppGpp synthesis by RelA were followed by TLC analysis followed by scintillation counting according to Mechold and colleagues, with modifications1. Time points from the reaction mixtures (5 μl, see below for details) were quenched by addition 4 μl 70% formic acid supplemented with a cold nucleotide standard used for UV-shadowing (10 mM GDP and 10 mM GTP) and spotted on PEI-TLC plates (Macherey-Nagel). TLC was run in buffer, plates dried, cut into sections guided by UV-shadowing and 3H radioactivity was quantified by scintillation counting in Optisafe-3 (Fisher) scintillation cocktail on Perkin Elmer Tricarb 2810TR counter. Conversion of substrate to product was quantified as described in Shyp et al. (2012)2.
Enzymatic assays with E. coli RelA
Screening: all experiments were performed in HEPES:Polymix, Mg2+ of 5 mM, 37 […]
μM ppGpp was pre-incubated at 37° C for 2 min and then reaction started by addition of 1 mM ATP, time points (5 μl) taken, quenched with formic acid and analyzed by TLC. Inhibition efficiency (IC50) was calculated using 4-parameter logistic model (Hill equation) as per Sebaugh (2011)3. […]

ΔywaCΔyjbM B. subtilis = test: Growth of ΔywaCΔyjbM B. subtilis in valine drop-out S7 medium (functional test for Rel inhibition); assay type: cell-based, Bacillus subtilis; conditions: up to 1 mM (0 to 1000 µM)
Source text: Finally, we tested the three of our most promising inhibitors (DR-4250, DR-M014 and DR-5163) for RSH inhibition in bacterial culture. For this we used the Gram-positive bacterium B. subtilis due to its better uptake of compounds as compared to Gram-negative species such as E. coli[50]. The functional test for RSH inhibition relied on the auxotrophy of (p)ppGpp-deficient (ppGpp^0) B. subtilis for methionine and branched-chain amino acids valine, leucine and isoleucine. The B. subtilis RSH repertoire consists of one multi-domain ribosome-associated enzyme Rel and two SAS, YwaC and YjbM[3][52]. Because the SAS RelQEf is refractory to inhibition by our test compounds (Supplementary Figure 2), we used a B. subtilis strain lacking SASs (ΔywaCΔyjbM), in which the sole source of (p)ppGpp is Rel[53]. Defined S7 medium[54] lacking valine supports the growth of ΔywaCΔyjbM B. subtilis, but not the ppGpp^0 stain (Supplementary Figure 5). […] This is indicative of the test compounds failing to inhibit Rel and thereby rendering the strain phenotypically ppGpp^0 (Supplementary Figure 5). A lack of cellular uptake is a likely explanation. […]
Growth assays with Bacillus subtilis BSB1 wild type strain
SAS deletion and ppGpp0 strain of B. subtilis5 were grown in S7 liquid medium6 except for amino acid requirements, which were met as described elsewhere 7. On 96-well plate, 90 µl of B subtilis starter culture was mixed with 10 µL of compound dilution (in 5 mM Tris pH 7.2) so that final OD600 was 0.025 (l = 1 cm).
Following incubation was without shaking at 37°C and growth was monitored with Tecan Infinite M200 at OD600 (raw OD600 values are reported). B. subtilis starter culture was prepared as follows. Late exponential phase cells in S7, with full set of amino acids, were diluted ≈10-fold in S7 lacking either valine or lysine so that, after addition of 8% DMSO, OD600 was 0.25. Next, cell suspensions were aliquoted, frozen in liquid nitrogen, and stored at -80°C. Just before the experiment, cells were thawed on ice and appropriate amount of media was […]
DywaC DyjbM BSB1 B. subtilis ppGpp0. BSB1 B. subtilis wild type strain as grown on S7 synthetic media8 drop-out media lacking valine which abolishes the growth of ppGpp0 (Drel DywaC DyjbM) strain due to valine auxotrophy (dashed line). […]
inhibit the Rel and render the strain ppGpp0.

E. coli EF-G = test system: T3, E. coli EF-G; assay type: biochemical; conditions: up to 1 mM
T3 construct: made in house
Method: as §1
as §2, with “(2012)2. […]” for “(2012)2.”
GTPase assays with E. coli EF-G
The reaction mixture contained 0.5 μM 70S, 0.1 μM EF-G, in HEPES:Polymix (25 mM Hepes 7.5/ 1 mM DTT / 5 mM Mg2+) pre-incubated for 2 minutes at 37°C prior to addition of 300 μM [3H]GTP substrate (Hartman), after which time points (5 μl) taken, quenched with formic acid and analyzed by TLC (see above). […]

[2] = 0.3 mM [3H]GDP, 1 mM ATP, read-out: IC50
[3] = 5 mM Mg2+, 37 °C, no unit beside the value, titration axis in mM, read-out: IC50 (Supplementary Table 1, example titration)

T2 sequence (P0AG20 whole entry): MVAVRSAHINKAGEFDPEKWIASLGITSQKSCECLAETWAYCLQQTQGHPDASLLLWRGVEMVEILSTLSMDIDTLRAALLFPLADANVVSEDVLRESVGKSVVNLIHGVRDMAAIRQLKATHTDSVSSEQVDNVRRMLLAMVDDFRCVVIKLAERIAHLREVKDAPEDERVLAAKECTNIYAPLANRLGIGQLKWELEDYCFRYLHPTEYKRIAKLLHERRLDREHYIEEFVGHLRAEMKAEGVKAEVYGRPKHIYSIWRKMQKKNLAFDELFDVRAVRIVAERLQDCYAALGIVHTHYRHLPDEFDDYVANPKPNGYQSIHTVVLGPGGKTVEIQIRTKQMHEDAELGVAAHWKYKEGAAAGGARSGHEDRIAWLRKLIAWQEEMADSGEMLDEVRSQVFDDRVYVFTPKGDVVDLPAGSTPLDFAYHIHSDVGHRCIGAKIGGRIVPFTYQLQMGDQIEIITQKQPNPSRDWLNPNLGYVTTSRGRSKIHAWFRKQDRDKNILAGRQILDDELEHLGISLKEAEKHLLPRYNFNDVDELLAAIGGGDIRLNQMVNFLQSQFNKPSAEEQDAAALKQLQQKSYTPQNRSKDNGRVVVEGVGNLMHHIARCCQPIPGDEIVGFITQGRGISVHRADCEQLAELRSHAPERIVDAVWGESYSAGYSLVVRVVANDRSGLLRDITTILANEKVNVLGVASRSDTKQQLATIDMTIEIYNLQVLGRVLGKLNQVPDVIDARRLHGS

| SMILES | Effect of DksA addition on RNAP inhibition, rrnB P1 promoter (in words) [1] | Inhibition of RNAP, rrnB P1 promoter (in words) [1] | Inhibition of RNAP, ppGpp-insensitive promoter rna1 (in words) ([1]; presence or absence of 100 μM ppGpp and/or 2 μM DksA (Supplementary Figure 4)) | IC50 (E. coli RelA; [2]) [mM] | IC50 (E. coli RelA; [3]) [mM] | nHill (Hill coefficient of the titration fit) (E. coli RelA) | Effect on growth of ΔywaCΔyjbM B. subtilis (in words) (ΔywaCΔyjbM B. subtilis) | Inhibitory effect on EF-G GTPase activity (in words) (E. coli EF-G) | Effect on growth of ΔywaCΔyjbM B. subtilis (in words) (ΔywaCΔyjbM B. subtilis; listed as DR-M013) |
| --- | --- | --- | --- | --- | --- | --- | --- | --- | --- |
| Nc1nc2c(ncn2C2OC(COP(=O)(O)OCP(=O)(O)O)C(OP(=O)(O)OCP(=O)(O)O)C2O)c(=O)[nH]1 (stereo not shown) [DR-4250, Guanosine 3’,5’-di(phosphonomethoxyphosphate)] | pronounced protective effect | more potent inhibitors of RNAP then of RelA | the same behavior | 0.054 ± 0.003 | 0.053 ± 0.003 | 2.74 ± 0.5 | did not affect bacterial growth; also recorded: does not affect the growth | no inhibitory effect | – |
| Nc1nc2c(ncn2C2CCN(C(=O)P(=O)(O)O)CC2)c(=O)[nH]1 [DR-M014] | pronounced protective effect | more potent inhibitors of RNAP then of RelA | – | 0.121 ± 0.02 | 0.12 ± 0.02 | 1.9 ± 0.5 | does not affect the growth | no inhibitory effect | did not affect bacterial growth |

Reference: article PMC5291098, “Molecular mutagenesis of ppGpp: turning a RelA activator into an inhibitor” (Scientific Reports, 2017)
